Measurements as given in US9884823B2, “Oxime ether acetate compound, preparation method therefor and weeding application thereof” (ZHEJIANG UNIVERSITY OF TECHNOLOGY, priority 2014, dated 2018).
Read-outs that look alike come from different tables or passages of the source.

Assays:
Rape [1] = conditions: 150 g a.i./ha; post-emergence spray treatment
Rape [2] = assay: Culture dish method (general screening); format: in vivo; conditions: 100 mg/L, 7 days
Excerpt: (§3) Culture dish method (general screening): The test targets were radish, cucumber, rape, wheat, sorghum and barnyard grass; the seeds of wheat, sorghum and radish were germinated in advance, and the uniform emerge-germinating seeds were used in the test.

Barley = conditions: post-emergence spray treatment; for Crop inhibition rate, Barley: 150 g a.i./ha
amaranthus retroflexus = assay: Potted plants live body test; format: in vivo
Excerpt: (§1) The raw drug which was selected from the compounds in table 1 was weighed using an analytical balance (0.0001 g), and dissolved in DMF containing 1 wt % Tween-80 emulsifier to prepare a mother liquor of raw drug with a mass concentration of 1.0˜5.0%, and then diluted with distilled water, to prepare preparations at desired concentrations according to the ratio of ingredients in Examples 8, 9 and 10.
(§2) The test targets were mustard, small quinoa, Abutilon, amaranthus retroflexus, Eclipta prostrata, crabgrass, dog point. A pot with a diameter of 7.5 cm was used, filled with composite soil (garden soil:nursery matrix, 1:2, v/v) to ¾ of the pot, then the above […] kinds of weeds targets were directly seeded (germination rate ≧85%), covered with soil at a thickness of 0.2 cm. When the weeds grew to 3-leaf stage, pre-emergence soil treatment for weeds planting, and then spraying was performed.

Dog point = assay: Potted plants live body test; format: in vivo
Excerpt: as §1, §2

Crabgrass = assay: Potted plants live body test; format: in vivo
Excerpt: as §1, §2

Eclipta prostrata = assay: Potted plants live body test; format: in vivo; conditions: for efficiency, Eclipta prostrata: 30 days, Table 9
Excerpt: as §1, §2

Abutilon = assay: Potted plants live body test; format: in vivo
Excerpt: as §1, §2

Wheat = assay: Culture dish method (general screening); format: in vivo; conditions: 100 mg/L, 7 days
Excerpt: as §3

Cucumber = assay: Culture dish method (general screening); format: in vivo; conditions: 100 mg/L, 7 days
Excerpt: as §3

[3] = test system: grass weeds such as crabgrass, barnyard grass, dog point; conditions: for activity for grass targets such as crabgrass and dog point / activity on grass weeds such as crabgrass, dog point / activity on grass weeds: 150 g a.i./ha; for activity for grass targets such as crabgrass and dog point: 30 days after administration, Table 9 summary; for activity on grass weeds such as crabgrass, dog point: postemergence spraying, 30 days; for activity on crabgrass, barnyard grass, dog point: postemergence treatment, 150, 75, 37.5 g a.i./ha; for activity on grass weeds: pre-emergence soil treatment
Excerpt: as §1, §2

weeds = conditions: pre-emergence soil treatment; dose lowered below 150 g a.i./ha
Excerpt: as §1, §2

[4] = test system: broadleaf weeds such as mustard, small quinoa, Abutilon, Amaranthus retroflexus and Eclipta prostrate; conditions: 150 g a.i./ha; for herbicidal activity on broadleaf weeds targets: 30 days after administration, Table 9 summary; for activity on the growth of broadleaf weeds: postemergence spraying, vs clear water control
Excerpt: as §1, §2

Small quinoa = conditions: 150 g a.i./ha, 30 days, Table 9
Excerpt: as §1, §2

Soybean = conditions: 150 g a.i./ha; post-emergence spray treatment
Corn = conditions: post-emergence spray treatment; for Crop inhibition rate, Corn: 150 g a.i./ha
Chinese sorghum = assay: Culture dish method (general screening); format: in vivo; conditions: 100 mg/L, 7 days
Excerpt: as §3

Mustard = conditions: 150 g a.i./ha, 30 days, Table 9
Rice = conditions: 150 g a.i./ha; post-emergence spray treatment
Radish = assay: Culture dish method (general screening); format: in vivo; conditions: 100 mg/L, 7 days
Excerpt: as §3

Barnyardgrass [5] = assay: Culture dish method (general screening); format: in vivo, barnyard grass; conditions: 100 mg/L, 7 days
Excerpt: as §3

Barnyardgrass [6] = assay: Potted plants live body test; format: in vivo, barnyard grass
Cotton = conditions: 150 g a.i./ha; post-emergence spray treatment
[7] = Postemergence spraying, 150 g a.i./ha, 30 days, Table 9
[8] = Pre-emergence soil treatment, 37.5 g a.i./ha
[9] = Pre-emergence soil treatment, 75 g a.i./ha
[10] = Pre-emergence soil treatment, 150 g a.i./ha, 30 days, Table 9
[11] = Pre-emergence soil treatment, 150 g a.i./ha, Table 10
[12] = postemergence spraying, 37.5 g a.i./ha
[13] = postemergence spraying, 75 g a.i./ha
[14] = postemergence spraying, 150 g a.i./ha, Table 10
[15] = Postemergence spraying, 150 g a.i./ha
[16] = Pre-emergence soil treatment, 150 g a.i./ha

Structure (SMILES): CON=C(C(=O)OC)c1ccccc1COc1cccc(-c2ncc(C(F)(F)F)cc2Cl)c1 [Compound 101]
- Crop inhibition rate, Rape (Rape [1]): 50%
- inhibition rate, Rape Root (Rape [2]): 100%
- inhibition rate, Rape Stem (Rape [2]): 100%
- Crop inhibition rate, Barley (Barley): 0%
- crop safety for barleys (Barley): safer
- efficiency, amaranthus retroflexus (amaranthus retroflexus; [7]): 100%
- efficiency, amaranthus retroflexus (amaranthus retroflexus; [8]): 0%
- efficiency, amaranthus retroflexus (amaranthus retroflexus; [9]): 15%
- efficiency, amaranthus retroflexus (amaranthus retroflexus; [10]): 100%
- efficiency, amaranthus retroflexus (amaranthus retroflexus; [11]): 100%
- efficiency, amaranthus retroflexus (amaranthus retroflexus; [12]): 100%
- efficiency, amaranthus retroflexus (amaranthus retroflexus; [13]): 100%
- efficiency, amaranthus retroflexus (amaranthus retroflexus; [14]): 100%
- efficiency, Dog point (Dog point; [7]): 0%
- efficiency, Dog point (Dog point; [8]): 0%
- efficiency, Dog point (Dog point; [9]): 0%
- efficiency, Dog point (Dog point; [10]): 50%
- efficiency, Dog point (Dog point; [11]): 50%
- efficiency, Dog point (Dog point; [12]): 0%
- efficiency, Dog point (Dog point; [13]): 0%
- efficiency, Dog point (Dog point; [14]): 0%
- efficiency, Crabgrass (Crabgrass; [7]): 0%
- efficiency, Crabgrass (Crabgrass; [8]): 0%
- efficiency, Crabgrass (Crabgrass; [9]): 0%
- efficiency, Crabgrass (Crabgrass; [10]): 80%
- efficiency, Crabgrass (Crabgrass; [11]): 80%
- efficiency, Crabgrass (Crabgrass; [12]): 0%
- efficiency, Crabgrass (Crabgrass; [13]): 0%
- efficiency, Crabgrass (Crabgrass; [14]): 0%
- efficiency, Eclipta prostrata (Eclipta prostrata; [15]): 100%
- efficiency, Eclipta prostrate (Eclipta prostrata; [8]): 0%
- efficiency, Eclipta prostrate (Eclipta prostrata; [9]): 0%
- efficiency, Eclipta prostrata (Eclipta prostrata; [16]): 85%
- efficiency, Eclipta prostrate (Eclipta prostrata; [11]): 85%
- efficiency, Eclipta prostrate (Eclipta prostrata; [12]): 97.5%
- efficiency, Eclipta prostrate (Eclipta prostrata; [13]): 100%
- efficiency, Eclipta prostrate (Eclipta prostrata; [14]): 100%
- efficiency, Abutilon (Abutilon; [7]): 100%
- efficiency, Abutilon (Abutilon; [8]): 0%
- efficiency, Abutilon (Abutilon; [9]): 0%
- efficiency, Abutilon (Abutilon; [10]): 100%
- efficiency, Abutilon (Abutilon; [11]): 100%
- efficiency, Abutilon (Abutilon; [12]): 30%
- efficiency, Abutilon (Abutilon; [13]): 60%
- efficiency, Abutilon (Abutilon; [14]): 100%
- inhibition rate, Wheat Root (Wheat): 50%
- inhibition rate, Wheat Stem (Wheat): 20%
- inhibition rate, Cucumber Root (Cucumber): 95%
- inhibition rate, Cucumber Stem (Cucumber): 100%
- activity for grass targets such as crabgrass and dog point [3]: poor activity
- activity on grass weeds such as crabgrass, dog point [3]: almost have no activity
- activity on crabgrass, barnyard grass, dog point [3]: not good activity or no activity
- activity on grass weeds [3]: not good activity
- activity on 6 kinds of weed targets (weeds): significantly decreased activity or no activity
- herbicidal activity on broadleaf weeds targets [4]: herbicidal activity
- activity on the growth of broadleaf weeds ([4]; 30 days): inhibitory activity
- efficiency, Small quinoa (Small quinoa; Postemergence spraying): 100%
- efficiency, Small quinoa (Small quinoa; Pre-emergence soil treatment): 100%
- Crop inhibition rate, Soybean (Soybean): 40%
- Crop inhibition rate, Corn (Corn): 0%
- crop safety for corns (Corn): safer
- inhibition rate, Chinese sorghum Root (Chinese sorghum): 100%
- inhibition rate, Chinese sorghum Stem (Chinese sorghum): 100%
- efficiency, Mustard (Mustard; Postemergence spraying): 100%
- efficiency, Mustard (Mustard; Pre-emergence soil treatment): 100%
- Crop inhibition rate, Rice (Rice): 30%
- inhibition rate, Radish Root (Radish): 100%
- inhibition rate, Radish Stem (Radish): 100%
- inhibition rate, Barnyardgrass Root (Barnyardgrass [5]): 100%
- inhibition rate, Barnyardgrass Stem (Barnyardgrass [5]): 95%
- efficiency, Barnyardgrass (Barnyardgrass [6]; [8]): 0%
- efficiency, Barnyardgrass (Barnyardgrass [6]; [9]): 0%
- efficiency, Barnyardgrass (Barnyardgrass [6]; [11]): 0%
- efficiency, Barnyardgrass (Barnyardgrass [6]; [12]): 0%
- efficiency, Barnyardgrass (Barnyardgrass [6]; [13]): 0%
- efficiency, Barnyardgrass (Barnyardgrass [6]; [14]): 0%
- Crop inhibition rate, Cotton (Cotton): 50%

Structure (SMILES): CON=C(C(=O)OC)c1ccccc1COc1ccc(-c2ncc(Cl)cc2Cl)cc1 [Compound 133]
- Crop inhibition rate, Rape (Rape [1]): 100%
- inhibition rate, Rape Root (Rape [2]): 100%
- inhibition rate, Rape Stem (Rape [2]): 100%
- Crop inhibition rate, Barley (Barley): 0%
- crop safety for barleys (Barley): safer
- efficiency, amaranthus retroflexus (amaranthus retroflexus; [7]): 100%
- efficiency, amaranthus retroflexus (amaranthus retroflexus; [8]): 20%
- efficiency, amaranthus retroflexus (amaranthus retroflexus; [9]): 30%
- efficiency, amaranthus retroflexus (amaranthus retroflexus; [10]): 100%
- efficiency, amaranthus retroflexus (amaranthus retroflexus; [11]): 100%
- efficiency, amaranthus retroflexus (amaranthus retroflexus; [12]): 100%
- efficiency, amaranthus retroflexus (amaranthus retroflexus; [13]): 100%
- efficiency, amaranthus retroflexus (amaranthus retroflexus; [14]): 100%
- efficiency, Dog point (Dog point; [7]): 0%
- efficiency, Dog point (Dog point; [8]): 0%
- efficiency, Dog point (Dog point; [9]): 0%
- efficiency, Dog point (Dog point; [10]): 50%
- efficiency, Dog point (Dog point; [11]): 50%
- efficiency, Dog point (Dog point; [12]): 0%
- efficiency, Dog point (Dog point; [13]): 0%
- efficiency, Dog point (Dog point; [14]): 0%
- efficiency, Crabgrass (Crabgrass; [7]): 0%
- efficiency, Crabgrass (Crabgrass; [8]): 0%
- efficiency, Crabgrass (Crabgrass; [9]): 0%
- efficiency, Crabgrass (Crabgrass; [10]): 50%
- efficiency, Crabgrass (Crabgrass; [11]): 50%
- efficiency, Crabgrass (Crabgrass; [12]): 0%
- efficiency, Crabgrass (Crabgrass; [13]): 0%
- efficiency, Crabgrass (Crabgrass; [14]): 0%
- efficiency, Eclipta prostrata (Eclipta prostrata; [15]): 100%
- efficiency, Eclipta prostrate (Eclipta prostrata; [8]): 0%
- efficiency, Eclipta prostrate (Eclipta prostrata; [9]): 0%
- efficiency, Eclipta prostrata (Eclipta prostrata; [16]): 100%
- efficiency, Eclipta prostrate (Eclipta prostrata; [11]): 100%
- efficiency, Eclipta prostrate (Eclipta prostrata; [12]): 97.5%
- efficiency, Eclipta prostrate (Eclipta prostrata; [13]): 100%
- efficiency, Eclipta prostrate (Eclipta prostrata; [14]): 100%
- efficiency, Abutilon (Abutilon; [7]): 100%
- efficiency, Abutilon (Abutilon; [8]): 0%
- efficiency, Abutilon (Abutilon; [9]): 0%
- efficiency, Abutilon (Abutilon; [10]): 100%
- efficiency, Abutilon (Abutilon; [11]): 100%
- efficiency, Abutilon (Abutilon; [12]): 100%
- efficiency, Abutilon (Abutilon; [13]): 100%
- efficiency, Abutilon (Abutilon; [14]): 100%
- efficiency on Abutilon (Abutilon; postemergence treatment, over doses 150, 75, 37.5 g a.i./ha): 100%
- inhibition rate, Wheat Root (Wheat): 50%
- inhibition rate, Wheat Stem (Wheat): 0%
- inhibition rate, Cucumber Root (Cucumber): 100%
- inhibition rate, Cucumber Stem (Cucumber): 100%
- activity for grass targets such as crabgrass and dog point [3]: poor activity
- activity on grass weeds such as crabgrass, dog point [3]: almost have no activity
- activity on crabgrass, barnyard grass, dog point [3]: not good activity or no activity
- activity on grass weeds [3]: not good activity
- activity on 6 kinds of weed targets (weeds): significantly decreased activity or no activity
- inhibition rate on the growth of broadleaf weeds ([4]; 30 days): 100%
- herbicidal activity on broadleaf weeds targets [4]: herbicidal activity
- activity on the growth of broadleaf weeds ([4]; 30 days): inhibitory activity
- efficiency, Small quinoa (Small quinoa; Postemergence spraying): 100%
- efficiency, Small quinoa (Small quinoa; Pre-emergence soil treatment): 100%
- Crop inhibition rate, Soybean (Soybean): 40%
- Crop inhibition rate, Corn (Corn): 0%
- crop safety for corns (Corn): safer
- inhibition rate, Chinese sorghum Root (Chinese sorghum): 100%
- inhibition rate, Chinese sorghum Stem (Chinese sorghum): 100%
- efficiency, Mustard (Mustard; Postemergence spraying): 100%
- efficiency, Mustard (Mustard; Pre-emergence soil treatment): 100%
- Crop inhibition rate, Rice (Rice): 30%
- inhibition rate, Radish Root (Radish): 100%
- inhibition rate, Radish Stem (Radish): 100%
- inhibition rate, Barnyardgrass Root (Barnyardgrass [5]): 100%
- inhibition rate, Barnyardgrass Stem (Barnyardgrass [5]): 100%
- efficiency, Barnyardgrass (Barnyardgrass [6]; [8]): 0%
- efficiency, Barnyardgrass (Barnyardgrass [6]; [9]): 0%
- efficiency, Barnyardgrass (Barnyardgrass [6]; [11]): 0%
- efficiency, Barnyardgrass (Barnyardgrass [6]; [12]): 0%
- efficiency, Barnyardgrass (Barnyardgrass [6]; [13]): 0%
- efficiency, Barnyardgrass (Barnyardgrass [6]; [14]): 0%
- Crop inhibition rate, Cotton (Cotton): 50%
